Source: PMC8816498, “A Customized Screening Tool Approach for the Development of a Self-Nanoemulsifying Drug Delivery System (SNEDDS)” (AAPS PharmSciTech, 2021)

Columns and labels:
[1] = Saturation solubility of the drug in individual excipients; type: physicochemical; settings: 37 °C, 24 h
Method: The saturation solubility of each drug in each of the individual excipients was investigated in triplicate by the following procedure: first, drug and excipients were blended in 2-ml safe lock test tubes ([17], [23], [26]). After short, intense vortex mixing, the mixtures were agitated at 1000 rpm for 24 h at 37 °C under light protection using a ThermoMixer® C (Eppendorf AG, Hamburg, Germany) to achieve an equilibrium state ([7], [12], [16], [17], [23], [26], [27]). […] After centrifugation at 37 °C, a defined mass (50 mg) of the supernatant was withdrawn and transferred to a 25-ml volumetric flask, and the sample was diluted with methanol to a total volume of 25.0 ml. Finally, a sample of 1 ml was analyzed using one of the previously described drug-specific HPLC methods.

[2] = media of pH 1, 4.5 and 6.8; 120 min; at the time of manufacture
Method: All experiments were performed in triplicate with 25 mg of the specific drug, or an equivalent amount of drug-loaded SNEDDS (300 µl) using USP apparatus II (DT 800 LH, ERWEKA GmbH, Langen, Germany). Dissolution was studied in 0.1 N hydrochloric acid (pH 1.0), acetate buffer USP (pH 4.5), and phosphate buffer USP (pH 6.8). All experiments were performed in a media volume of 500 ml at 37 ± 0.5 °C using a paddle speed of 100 rpm. All samples were withdrawn automatically using a fraction collector, equipped with cannula filters of 10 µm pore size and manually diluted 1:1 (v/v) with acetonitrile before HPLC analysis.

| Solubility in Miglyol 812 [1] | Solubility in co-solvents ([1]; Tetra EG, Transcutol HP, Carbowax PEG 400) | Dissolution behaviour [2] | SMILES |
| --- | --- | --- | --- |
| exceptionally low solubility | high solubility | poor solubility | Cc1ccc(-c2cc(C(F)(F)F)nn2-c2ccc(S(N)(=O)=O)cc2)cc1 [Celecoxib] |
| – | – | poor solubility | CC(C)OC(=O)C(C)(C)Oc1ccc(C(=O)c2ccc(Cl)cc2)cc1 [Fenofibrate] |
